The structures appear in SMILES notation. Counter-ions that a name gives are not always drawn.

The first data set has as its system blood platelet (rabbit platelet rich plasma). Briefly: Anti-aggregatory activity: inhibition of collagen- or ADP-induced platelet aggregation in vitro (PRP). The class given is cell-based. To be noted: Oryctolagus cuniculus, 50% inhibition of control response, collagen (3 μg/ml) or ADP (3 μM), table does not say which, 37° C. The protocol:
Blood was obtained from an anesthetized rabbit using 0.1 volumes of 3.8% sodium citrate as anticoagulant. Platelet rich plasma(PRP) was isolated by centrifugation at 650 rpm for 10 minutes at room temperature. After preincubation of PRP (0.25 ml) with various concentrations of test compounds (14 μl) for 1 minute at 37° C., collagen (3 μg/ml:final concentration) or ADP (3 μM:final concentration) was added to induce aggregation and the aggregation profiles were monitored with RIKADENKI six-channel aggregometer. The control experiment contained saline instead of test compound.
The anti-aggregatory activity was represented by the concentration of test compound which elicited 50% inhibition of control response.
In general, IC50 refers to the point on the concentration scale where inhibition reaches its midpoint. `COc1ccc(OCCCN(C)C)c(C2Sc3ccccc3NC2=O)c1` (stereo not shown) [Compound 55, 3,4-dihydro-2-[2-(3-dimethylaminopropoxy)-5-methoxyphenyl]-3-oxo-2H-1,4-benzothiazine] came in with an IC50 of 3.2 µM. As for `COc1ccc(OCCCCN(C)C2CCCCC2)c(C2Sc3ccccc3NC2=O)c1` (stereo not shown) [Compound 57], inhibition was half-maximal at 3.2 µM (IC50).

As for `COc1ccc(OCCCCN(C)C2CCCCC2)c(C2Sc3ccccc3N(C)C2=O)c1` (stereo not shown) [Compound 63, 3,4-Dihydro-2-[5-methoxy-2-[4-(N-methylcyclohexylamino)butoxy]phenyl]-4-methyl-3-oxo-2H-1,4-benzothiazine oxalate], half-maximal inhibition (IC50) was put at 3.2 µM. On the same count and under the same terms, as for `CN(C)CCCOc1ccc(C2Sc3ccccc3NC2=O)cc1` (stereo not shown) [Compound 67], the figure is 1.6 µM; as for `COc1ccc(OCCCN2CCN(CC(=O)c3ccccc3)CC2)c(C2Sc3ccccc3NC2=O)c1` (stereo not shown) [Compound 76], 3.2 µM. The same measure, in the same setting: the same measure for `COc1ccc(OCCCCN2CCN(CCc3cc(OC)c(OC)c(OC)c3)CC2)c(C2Sc3ccccc3N(C)C2=O)c1` (stereo not shown) [Compound 78]: 3.5 µM; for `COc1ccc(OCCCN(C)C)c(C2Sc3ccccc3N(CCCN(C)C)C2=O)c1` (stereo not shown) [Compound 82, 3,4-Dihydro-2-[2-(3-dimethylaminopropoxy)-5-methoxyphenyl]-4-(3-dimethylaminopropyl)-3-oxo-2H-1,4-benzothiazine dioxalate]: 3.2 µM.

Molecule `COc1ccc(OCC(O)CNC(C)(C)C)c(C2Sc3ccccc3NC2=O)c1` (stereo not shown) [Compound 105, 2-[2-(3-tert-Butylamino-2-hydroxypropoxy)-5-methoxyphenyl]-3,4-dihydro-3-oxo-2H-1,4-benzothiazine] gave a 50% inhibitory concentration (IC50) of 1 µM. Still for that read-out and setting: as for `COc1ccc(OCC(O)CNC(C)(C)C)c(C2Sc3ccccc3N(C)C2=O)c1` (stereo not shown) [Compound 106], the figure is 1.3 µM.

The subject of another data set is guinea-pig teania coli. Kind of data set: Calcium-antagonistic activity: inhibition of CaCl2-evoked contraction of isolated guinea-pig teania coli. The class given is tissue-based. Conditions: Cavia porcellus, 5 min; 50% inhibition of Ca^++-evoked contraction; CaCl2 3×10^-4 M; 5 minutes exposure; 32° C. As for the experimental part: The action potentials on the smooth muscles of uterus, teania coli and portal vein are dependent on calcium ion, and therefor these smooth muscle preparations are useful for screening of calcium antagonists. We measured the calcium-antagonistic activity of the compounds by the method using guinea-pig teania coli preparation.
Isolated guinea-pig teania coli was suspended in a 20 ml organ bath with Krebs solution at 32° C. and bubbled with 5% carbon dioxide in oxygen. After equilibration, the muscle was washed with Ca^++ -free Krebs solution, and when the muscle had relaxed to basal level, it was suspended in Ca^++ -free-high-K Krebs solution.
The muscle was exposed to test compounds for 5 minutes before addition of CaCl2, and the contraction evoked by CaCl2 (3×10^-4 M) was recorded isotonically. The calcium-antagonistic activity was represented by the concentration of test compound which elicited 50% inhibition of Ca^++ -evoked contraction (IC50).
Turning to `COc1ccc(OCCCCCN(C)C2CCCCC2)c(C2Sc3ccccc3NC2=O)c1` (stereo not shown) [Compound 58], the IC50 was 2.6 µM. Still for that read-out and setting: the same measure for `COc1ccc(OCCCN(C)CCc2ccc(OC)c(OC)c2)c(C2Sc3ccccc3NC2=O)c1` (stereo not shown) [Compound 59]: 2 µM; for `COc1ccc(OCCCN(C)C)c(C2Sc3ccccc3N(C)C2=O)c1` (stereo not shown) [Compound 61]: 2.5 µM. Same read-out and setting: the same measure for `COc1ccc(OCCCN(C)C2CCCCC2)c(C2Sc3ccccc3N(C)C2=O)c1` (stereo not shown) [Compound 62]: 1.6 µM; for `COc1ccc(OCCCCCN(C)C2CCCCC2)c(C2Sc3ccccc3N(C)C2=O)c1` (stereo not shown) [Compound 64]: 3 µM.

Take `COc1ccc(OCCCCN2CCC(C(=O)c3ccccc3)CC2)c(C2Sc3ccccc3N(C)C2=O)c1` (stereo not shown) [Compound 65]: the half-inhibitory concentration (IC50) was found to be 1.8 µM. For `CN(CCCOc1ccc(C2Sc3ccccc3NC2=O)cc1)C1CCCCC1` (stereo not shown) [Compound 68], the IC50 was determined as 1.9 µM. Same read-out and setting: as for `COc1ccc(CCN2CCN(CCCOc3ccc(C4Sc5ccccc5NC4=O)cc3)CC2)cc1OC` (stereo not shown) [Compound 71], the figure is 2 µM; as for `CN(C)CCCOc1ccc(C2Sc3ccccc3N(C)C2=O)cc1` (stereo not shown) [Compound 72, 3,4-Dihydro-2-[4-(3-dimethylaminopropoxy)phenyl]-4-methyl-3-oxo-2H-1,4-benzothiazine], 2.6 µM; as for `CN1C(=O)C(c2ccc(OCCCN(C)C3CCCCC3)cc2)Sc2ccccc21` (stereo not shown) [Compound 73], 3.4 µM. The same measure, in the same setting: as for `COc1ccc(OCCCCN2CCN(CCc3cc(OC)c(OC)c(OC)c3)CC2)c(C2Sc3ccccc3NC2=O)c1` (stereo not shown) [Compound 75], the figure is 3 µM; as for `COc1ccc(OCCCN2CCN(CCc3cc(OC)c(OC)c(OC)c3)CC2)c(C2Sc3ccccc3N(C)C2=O)c1` (stereo not shown) [Compound 77], 1.6 µM. Same read-out and setting: as for `COc1ccc(OCCCCN2CCN(CC(=O)c3ccccc3)CC2)c(C2Sc3ccccc3N(C)C2=O)c1` (stereo not shown) [Compound 79], the figure is 3.9 µM. Turning to `COc1ccc(OCC(O)CN2CCN(CC(=O)c3ccccc3)CC2)c(C2Sc3ccccc3N(C)C2=O)c1` (stereo not shown) [Compound 107, 3,4-Dihydro-2-[5-methoxy-2-[2-hydroxy-3-(4-phenacylpiperazino)propoxy]phenyl]-4-methyl-3-oxo-2H-1,4-benzothiazine dimaleate], the IC50 was 3.8 µM.

Tested on in the next data set: not listed separately
Kind of data set: Acute toxicity test, oral. Conditions: mouse, in vivo, orally, male ddy-SLC mice. As for the experimental part: Male ddy-SLC strain mice (4 weeks of age, weighing 19-21 g) were placed in a breeding room of constant temperature and huminity (23±1° C., 55±5%) and fed freely pellet diet and water ad. libitum for a week. Mice showing normal growth were selected for the test. (method of administration)
Test compounds are suspended in 0.5% tragacanth suspention and administered orally in a dose of 0.5 ml/20 g body weight.
By LD50 is commonly meant the dose at which mortality reaches 50%. Consider `CN1C(=O)C(c2ccc(OCCCN(C)C3CCCCC3)cc2)Sc2ccccc21` (stereo not shown) [Compound 73], for which the median lethal dose (LD50) was 500 to 1000 mg/kg. On to `COc1ccc(OCCCN2CCN(CCc3cc(OC)c(OC)c(OC)c3)CC2)c(C2Sc3ccccc3N(C)C2=O)c1` (stereo not shown) [Compound 77], for which the 50% lethal dose (LD50) is greater than 1280 mg/kg.
